Laboratory results taken from PubChem BioAssay AID856 (The Scripps Research Institute Molecular Screening Center, 2007).
Where “and” joins values, the source holds several entries; their conditions need not be identical. Equal entries are not always repeated. Calls of active or inactive are those of the source. How the calls were made is not given here.

tested on: CRE-bla reporter cells, beta-lactamase FRET, antagonist mode; experiment: inhibition of CRE beta-lactamase reporter – cell-based, beta-lactamase FRET, counter-screen for S1P2 antagonist project, dose response (AID 856)

**Q.** With `Cc1ccc(-c2nn(-c3ccccc3)cc2/C=N/NC(=O)c2ccc(Br)o2)cc1` as the compound, how does the IC50 read?
**A.** 1820 nM

**Q.** How did the IC50 turn out when `CCOC(=O)C1C(=O)CC(C)(O)C(C(=O)OCC)C1c1ccccc1` (configuration not stated) was run?
**A.** > 50000 nM (inactive)

**Q.** For `CN(C)C=NC(=O)c1sc2cc(C(F)(F)F)cnc2c1-c1cccs1`, which IC50 is on record?
**A.** > 40000 nM (inactive)

**Q.** With `Cc1nc2c(=O)n(C)c(=O)nc-2n(C)n1` as the compound, how does the IC50 read?
**A.** 1270 nM

**Q.** How did the IC50 turn out when `CN(C)C=NC(=O)c1sc2cc(C(F)(F)F)cnc2c1-c1ccccc1` was run?
**A.** > 40000 nM (inactive)

**Q.** For `COC(=O)c1sc2cc(C(F)(F)F)cnc2c1-c1cccs1`, which IC50 is on record?
**A.** > 40000 nM (inactive)

**Q.** For `FC(F)(F)c1cnc2c(-c3cccs3)csc2c1`, which IC50 is on record?
**A.** > 40000 nM (inactive)

**Q.** For `Cc1ccc2[nH]c3c(N4CCc5ccccc5C4)ncnc3c2c1`, which IC50 is on record?
**A.** 569 nM

**Q.** Which IC50 does the source give for `O=C(O)c1sc2cc(C(F)(F)F)cnc2c1-c1cccs1` here?
**A.** > 40000 nM (inactive)

**Q.** How did the IC50 turn out when `COc1ccc(NC(=O)/C(Cl)=C(/Cl)S(=O)(=O)Cc2ccc(C)cc2)cn1` was run?
**A.** 1430 nM

**Q.** Which IC50 does the source give for `CCC(NC(=O)Nc1nnc(C(F)(F)F)s1)(C(F)(F)F)C(F)(F)F` here?
**A.** 1260 nM

**Q.** How did the IC50 turn out when `CCN(CC)c1ccc2c(Cl)c(Br)c(=O)oc2c1` was run?
**A.** 4370 nM

**Q.** For `N#CC(c1cccc(Cl)c1)c1ccc2c(C(F)(F)F)cc(C(F)(F)F)nc2n1` (configuration not stated), which IC50 is on record?
**A.** 90 nM

**Q.** `Cc1ccc(-n2c(-c3ccc(Br)cc3)c[n+]3c2CCc2ccc4cccnc4c2-3)cc1` was tested. Which IC50 did it give?
**A.** 1490 nM

**Q.** For `O=S(=O)(C/C(=C/CO)S(=O)(=O)c1ccccc1)c1ccccc1`, which IC50 is on record?
**A.** 3710 nM

**Q.** For `O=C(NC(Nc1nc2ccc([N+](=O)[O-])cc2s1)(C(F)(F)F)C(F)(F)F)c1ccccc1`, which IC50 is on record?
**A.** 101 nM

**Q.** With `COc1ccc(NC(=O)/C(Cl)=C(/Cl)S(=O)Cc2ccc(C)cc2)cn1` (configuration not stated) as the compound, how does the IC50 read?
**A.** 752 nM

**Q.** `CCn1c(=O)c(C(=O)Nc2nc3ccccc3[nH]2)c(O)c2ccccc21` was tested. Which IC50 did it give?
**A.** 29100 nM (inactive)

**Q.** With `O=C(OCn1ncc(Cl)c(Cl)c1=O)c1ccccc1Cl` as the compound, how does the IC50 read?
**A.** 2580 nM

**Q.** Which IC50 does the source give for `COC(=O)c1sc2cc(C(F)(F)F)cnc2c1-c1ccccn1` here?
**A.** > 40000 nM (inactive)

**Q.** How did the IC50 turn out when `O=C(Nc1ccc(F)cc1)c1sc2cc(C(F)(F)F)cnc2c1-c1cccs1` was run?
**A.** > 50 µM (inactive) and > 40 µM (inactive)

**Q.** `Cn1nc(-c2ccc(Cl)cc2)nc2c(=O)n(C)c(=O)nc1-2` was tested. Which IC50 did it give?
**A.** 634 nM

**Q.** `CCOC(=O)N1CCN(C(=O)CSCC(=O)Nc2nc(-c3ccc(-c4ccccc4)cc3)cs2)CC1` was tested. Which IC50 did it give?
**A.** 873 nM

**Q.** For `CCCCS(=O)(=O)/C=C\C=C/S(=O)(=O)CCCC`, which IC50 is on record?
**A.** 1960 nM

**Q.** `O=C(OCn1ncc(Cl)c(Cl)c1=O)c1ccc(F)cc1` was tested. Which IC50 did it give?
**A.** 3810 nM

**Q.** How did the IC50 turn out when `O=C(Nc1ccc(F)cc1)c1sc(-c2ccccc2)nc1C(F)(F)F` was run?
**A.** > 40000 nM (inactive)

**Q.** For `Fc1ccc(-n2nnnc2-c2cnc(-c3cccs3)nc2C(F)(F)F)cc1`, which IC50 is on record?
**A.** 2920 nM

**Q.** Which IC50 does the source give for `CCCCCCCCNc1ncnc2ccccc12` here?
**A.** 42 nM

**Q.** Which IC50 does the source give for `Cc1cccc(NC2=Nc3ccccc3N3C2=Nc2c(c(C)nn2-c2ccccc2)C3c2ccc(O)c(O)c2)c1` (configuration not stated) here?
**A.** 8000 nM

**Q.** For `Cc1ccc2[nH]c3c(N4CCCCCC4)ncnc3c2c1`, which IC50 is on record?
**A.** 1810 nM

**Q.** Which IC50 does the source give for `COc1ccc(OC)c(NC(=O)CSc2ncnc3c2cnn3-c2ccccc2Cl)c1` here?
**A.** 640 nM

**Q.** Which IC50 does the source give for `O=C(c1sc2cc(C(F)(F)F)cnc2c1-c1ccccc1)N1CCOCC1` here?
**A.** > 40000 nM (inactive)

**Q.** `COC(=O)c1sc2cc(C(F)(F)F)cnc2c1-c1cccnc1` was tested. Which IC50 did it give?
**A.** > 40000 nM (inactive)

**Q.** With `Cc1n[nH]c(C)c1N1C(=O)c2cccc3c(Br)ccc(c23)C1=O` as the compound, how does the IC50 read?
**A.** 5750 nM

**Q.** Which IC50 does the source give for `Cn1c(-c2c(N)n(C3CCCC3)c3nc4ccccc4nc23)nc2ccccc21` here?
**A.** 2370 nM

**Q.** For `O=C(Nc1ccc(F)cc1)c1sccc1S(=O)(=O)Cc1cccc(C(F)(F)F)c1`, which IC50 is on record?
**A.** > 40000 nM (inactive)

**Q.** How did the IC50 turn out when `Cn1c(-c2c(N)n(CCCc3ccccc3)c3nc4ccccc4nc23)nc2ccccc21` was run?
**A.** > 50000 nM (inactive)

**Q.** For `O=S1(=O)C=C(Sc2nc3cc(Cl)ccc3o2)c2ccccc21`, which IC50 is on record?
**A.** 4040 nM

**Q.** With `CC1=C/C(=N\OS(=O)(=O)c2ccccc2)C(C)=CC1=O` as the compound, how does the IC50 read?
**A.** 2390 nM

**Q.** Which IC50 does the source give for `COc1ccc(CS(=O)(=O)/C(Cl)=C(/Cl)C(=O)Nc2ccc(OC)nc2)cc1` here?
**A.** 1840 nM

**Q.** With `Cc1ccc(C(=O)OCn2ncc(Cl)c(Cl)c2=O)cc1` as the compound, how does the IC50 read?
**A.** 3080 nM

**Q.** For `Cc1ccc(NC2=Nc3ccccc3N3C2=Nc2c(c(C)nn2-c2ccccc2)C3c2ccc(O)c(O)c2)cc1` (configuration not stated), which IC50 is on record?
**A.** 9980 nM

**Q.** How did the IC50 turn out when `Cc1ccsc1C(=O)Nc1ccc(F)cc1` was run?
**A.** > 40000 nM (inactive)

**Q.** For `O=C(O)c1sc2cc(C(F)(F)F)cnc2c1-c1ccccc1`, which IC50 is on record?
**A.** > 40000 nM (inactive)

**Q.** With `O=C(O)c1sc2cc(C(F)(F)F)cnc2c1-c1ccccn1` as the compound, how does the IC50 read?
**A.** > 40000 nM (inactive)

**Q.** How did the IC50 turn out when `COC(=O)c1sc2cc(C(F)(F)F)cnc2c1-c1ccccc1` was run?
**A.** > 40000 nM (inactive)

**Q.** `COC(=O)C1CN(C#N)N(c2ccc(Cl)cc2)C12c1ccccc1-c1ccccc12` (configuration not stated) was tested. Which IC50 did it give?
**A.** 607 nM

**Q.** For `Cc1cc(/C=N/n2cnnc2)c(C)n1-c1ccc(OCc2ccc(Cl)cc2)cc1`, which IC50 is on record?
**A.** 362 nM

**Q.** With `O=C(C#Cc1cccc([N+](=O)[O-])c1)c1ccccc1` as the compound, how does the IC50 read?
**A.** 2270 nM

**Q.** With `COc1ccccc1C(=O)Nc1nc(-c2ccc(S(=O)(=O)N3CCOCC3)cc2)cs1` as the compound, how does the IC50 read?
**A.** 2250 nM

**Q.** `O=C(c1cc(NC(=O)C23CC4CC(CC(C4)C2)C3)cc(NC(=O)C23CC4CC(CC(C4)C2)C3)c1)N1CCCCC1` was tested. Which IC50 did it give?
**A.** 793 nM

**Q.** `COc1ccc2c(c1)[nH]c1c(N3CCN(Cc4ccc5c(c4)OCO5)CC3)ncnc12` was tested. Which IC50 did it give?
**A.** 1400 nM

**Q.** How did the IC50 turn out when `CCN1/C(=C\C=C\C2=[N+](CC)c3ccccc3C2(C)C)C(C)(C)c2ccccc21` was run?
**A.** 64 nM

**Q.** How did the IC50 turn out when `CCN(C(=O)c1ccc(C(C)(C)C)cc1)c1nnc(Cn2nnc3ccccc32)s1` was run?
**A.** 1800 nM

**Q.** For `CCOC(=O)c1cnc(-n2nc(C)cc2C)nc1NC1CCCCC1`, which IC50 is on record?
**A.** 1750 nM

**Q.** With `Cn1c2c(c(=O)n(C)c1=O)C(C(F)(F)F)(C(F)(F)F)N=C(c1ccc(Cl)cc1)N2` as the compound, how does the IC50 read?
**A.** 1200 nM

**Q.** Which IC50 does the source give for `O=C(O)c1sc2cc(C(F)(F)F)cnc2c1-c1ccco1` here?
**A.** > 40000 nM (inactive)

**Q.** `Cc1nc(-c2cccs2)sc1C(=O)Nc1ccc(F)cc1` was tested. Which IC50 did it give?
**A.** > 40000 nM (inactive)

**Q.** For `COc1cccc(-c2nnc3n2N=C(C(C)(C)C)CS3)c1`, which IC50 is on record?
**A.** 1070 nM

**Q.** For `CC1=C(C)/C(=N\OS(=O)(=O)c2ccccc2)C=CC1=O`, which IC50 is on record?
**A.** 2650 nM

**Q.** `O=C(Nc1ccc(F)cc1)c1cccs1` was tested. Which IC50 did it give?
**A.** > 40000 nM (inactive)

**Q.** With `CCCC(=O)N1CCN(c2ccc(NC(=O)c3cc4ccccc4o3)cc2Cl)CC1` as the compound, how does the IC50 read?
**A.** 2950 nM

**Q.** How did the IC50 turn out when `N#C/C(=C/c1ccc(N2CCCCCC2)o1)c1ccc(F)cc1` was run?
**A.** 9670 nM

**Q.** With `CC(=O)Nc1cc(OC(C)=O)c2nonc2c1OC(C)=O` as the compound, how does the IC50 read?
**A.** 3340 nM

**Q.** With `COc1ccc(NC(=O)/C(Cl)=C(/Cl)S(=O)(=O)Cc2ccccc2)cn1` as the compound, how does the IC50 read?
**A.** 1560 nM

**Q.** For `Nc1nc(Cl)cc(N2CCC(c3cc(-c4ccc(Cl)cc4)n[nH]3)CC2)n1`, which IC50 is on record?
**A.** 1490 nM

**Q.** For `CC1=C/C(=N\OS(=O)(=O)c2ccccc2)C=CC1=O`, which IC50 is on record?
**A.** 2920 nM

**Q.** Which IC50 does the source give for `O=C(O)c1sc2cc(C(F)(F)F)cnc2c1-c1cccnc1` here?
**A.** > 40000 nM (inactive)

**Q.** Which IC50 does the source give for `CCCCCCCCCCn1c2c(c(=N)c3c1CCC3)CCC2` here?
**A.** 333 nM

**Q.** Which IC50 does the source give for `CCN1/C(=C/c2ccc3ccccc3[n+]2CC)C=Cc2ccccc21` here?
**A.** 1080 nM

**Q.** Which IC50 does the source give for `O=C(Nc1ccc(F)cc1)c1cc(-c2cccs2)nc2ccccc12` here?
**A.** > 40000 nM (inactive)

**Q.** For `CCCCCCCCCn1c2c(c(=N)c3c1CCC3)CCC2`, which IC50 is on record?
**A.** 459 nM

**Q.** `FC(F)(F)c1cnc2c(-c3cccs3)c(-c3ncn[nH]3)sc2c1` was tested. Which IC50 did it give?
**A.** > 40000 nM (inactive)

**Q.** With `O=C(Nc1ccc(S(=O)(=O)N2CCOCC2)cc1)c1ccc(CN2CCc3ccccc3C2)cc1` as the compound, how does the IC50 read?
**A.** 773 nM

**Q.** With `COc1ccc(NC(=O)/C(Cl)=C(/Cl)S(=O)Cc2ccccc2)cn1` (configuration not stated) as the compound, how does the IC50 read?
**A.** 1280 nM

**Q.** With `NC(=O)c1sc2cc(C(F)(F)F)cnc2c1-c1cccs1` as the compound, how does the IC50 read?
**A.** > 40000 nM (inactive)

**Q.** How did the IC50 turn out when `Cc1nn(-c2ccccc2)c2c1C(c1ccc(O)c(O)c1)N1C(=N2)C(Nc2ccccc2)=Nc2ccccc21` (configuration not stated) was run?
**A.** 10500 nM (inactive)
